Assay results from patent publication US9663516B2, “Bicyclic-pyrimidinedione compounds” (MyoKardia, Inc., priority 2014, dated 2017).

Target: bovine cardiac myosin (Bos taurus, UniProt Q9BE39)
Assay: Myosin inhibition assay (PK/LDH-coupled ATPase, bovine cardiac myofibrils)
Assay type: biochemical
Details: calcium concentration giving 50% activation, pH 6.8, read-out: bcMF pCa_6 IC50
Protocol: Small molecule agents were assessed for their ability to inhibit the enzymatic activity of bovine cardiac myosin using a biochemical assay that couples the release of ADP (adenosine diphosphate) from cardiac myosin to an enzymatic coupling system consisting of pyruvate kinase and lactate dehydrogenase (PK/LDH) and monitoring the absorbance decrease of NADH (at 340 nm) as a function of time. PK converts ADP to ATP (adenosine triphosphate) by converting PEP (phosphoenolpyruvate) to pyruvate. Pyruvate is then converted to lactate by LDH by converting NADH (nicotinamide adenine dinucleotide) to NAD (oxidized nicotinamide adenine dinucleotide). […] Prior to testing small molecule agents, the bovine myofibrils were assessed for their calcium responsiveness and the calcium concentration that achieves a 50% activation of the myofibril system was chosen as the final condition for assessing the inhibitory activity of the small molecule agents. All enzymatic activity was measured in a buffered solution containing 12 mM PIPES (piperazine-N,N′-bis(2-ethanesulfonic acid), 2 mM magnesium chloride at pH 6.8 (PM12 buffer). Final assay conditions were 1 mg/mL of bovine cardiac myofibrils, 0.4 mM PK/LDH, 50 uM ATP, 0.1 mg/mL BSA (bovine serum albumin), 10 ppm antifoam, 2 mM BME, 0.5 mM NADH, 1.5 mM PEP at the desired free calcium concentration required to achieve 50% activation of the myofibrils.
A dilution series of compound was created in DMSO such that the final desired concentration of compound would be achieved in a volume of 30 μL with a fixed DMSO concentration of 3.3% (v/v). Typically 1 μL of the dilution series were added to 384 well plate to achieve an 10 point dose response. Following the addition of 14 μL of a solution containing bovine cardiac myofibrils, PK/LDH and a solution of calcium (that achieved 50% activation), the enzymatic reaction was started with the addition of 15 μL of a solution containing ATP, PEP and NADH. The reaction progress was followed in a PerkinElmer Envision plate reader at ambient temperature using clear bottom plates. The plate reader was configured to read absorbance at 340 nm in kinetics mode for 15 minutes. Data were recorded as the slope of the absorbance response to time. The slopes of the absorbance response as a function of time were normalized to slopes on the plate containing DMSO. This normalized rate was then plotted as a function of small molecule concentration and the data was fitted to a four-parameter fit using EXCEL XLfit. The IC50 is the concentration at which fifty percent of the total response is inhibited.

bovine cardiac myosin, sequence (Q9BE39 whole entry): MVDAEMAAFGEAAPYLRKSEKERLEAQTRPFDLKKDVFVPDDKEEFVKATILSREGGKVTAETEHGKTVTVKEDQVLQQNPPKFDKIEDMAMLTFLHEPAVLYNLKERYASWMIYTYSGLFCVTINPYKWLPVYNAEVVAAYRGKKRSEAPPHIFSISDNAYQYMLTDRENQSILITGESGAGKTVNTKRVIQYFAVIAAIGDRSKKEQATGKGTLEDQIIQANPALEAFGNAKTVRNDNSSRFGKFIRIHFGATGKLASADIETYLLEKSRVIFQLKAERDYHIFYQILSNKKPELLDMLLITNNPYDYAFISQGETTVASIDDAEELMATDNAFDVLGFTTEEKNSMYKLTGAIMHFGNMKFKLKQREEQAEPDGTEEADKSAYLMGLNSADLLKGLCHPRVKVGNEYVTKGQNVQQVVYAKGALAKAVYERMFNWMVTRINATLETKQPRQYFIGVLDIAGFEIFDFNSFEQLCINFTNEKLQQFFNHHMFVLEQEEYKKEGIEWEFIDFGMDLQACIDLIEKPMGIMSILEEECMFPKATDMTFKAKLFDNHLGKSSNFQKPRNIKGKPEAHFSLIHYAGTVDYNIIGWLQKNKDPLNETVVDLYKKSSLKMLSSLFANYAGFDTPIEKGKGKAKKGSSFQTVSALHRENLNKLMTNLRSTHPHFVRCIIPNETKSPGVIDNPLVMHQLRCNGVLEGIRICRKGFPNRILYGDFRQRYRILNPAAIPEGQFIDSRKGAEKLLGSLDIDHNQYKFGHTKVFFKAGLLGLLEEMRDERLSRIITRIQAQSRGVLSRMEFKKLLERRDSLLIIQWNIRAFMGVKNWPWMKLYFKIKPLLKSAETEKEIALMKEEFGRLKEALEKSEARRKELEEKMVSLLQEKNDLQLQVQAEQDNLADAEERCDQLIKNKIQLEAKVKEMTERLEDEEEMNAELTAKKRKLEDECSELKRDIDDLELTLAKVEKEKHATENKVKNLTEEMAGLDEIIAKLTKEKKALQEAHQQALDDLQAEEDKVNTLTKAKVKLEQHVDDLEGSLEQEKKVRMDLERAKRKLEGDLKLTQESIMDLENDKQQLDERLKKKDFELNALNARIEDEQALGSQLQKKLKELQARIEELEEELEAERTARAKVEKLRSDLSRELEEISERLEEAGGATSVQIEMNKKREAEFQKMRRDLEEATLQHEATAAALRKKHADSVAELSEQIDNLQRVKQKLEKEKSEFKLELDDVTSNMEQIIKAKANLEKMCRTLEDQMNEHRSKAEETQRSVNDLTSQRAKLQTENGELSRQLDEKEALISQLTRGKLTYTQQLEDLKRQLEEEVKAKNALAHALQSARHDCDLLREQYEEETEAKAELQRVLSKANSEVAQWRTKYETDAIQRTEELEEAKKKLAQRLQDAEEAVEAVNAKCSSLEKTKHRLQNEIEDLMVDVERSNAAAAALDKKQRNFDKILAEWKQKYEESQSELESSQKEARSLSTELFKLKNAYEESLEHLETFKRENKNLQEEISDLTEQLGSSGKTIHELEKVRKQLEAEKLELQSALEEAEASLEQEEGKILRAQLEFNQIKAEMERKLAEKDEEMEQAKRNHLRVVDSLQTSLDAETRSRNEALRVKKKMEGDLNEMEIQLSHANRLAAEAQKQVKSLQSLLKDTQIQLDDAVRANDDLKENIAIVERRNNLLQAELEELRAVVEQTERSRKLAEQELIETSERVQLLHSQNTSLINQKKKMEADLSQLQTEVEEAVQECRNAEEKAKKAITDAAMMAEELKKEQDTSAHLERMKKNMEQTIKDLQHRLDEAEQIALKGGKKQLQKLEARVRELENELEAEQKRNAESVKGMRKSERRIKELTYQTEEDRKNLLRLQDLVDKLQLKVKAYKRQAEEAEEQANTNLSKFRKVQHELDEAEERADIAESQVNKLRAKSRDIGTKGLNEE
bovine cardiac myosin, sequence (P85100 whole entry partner): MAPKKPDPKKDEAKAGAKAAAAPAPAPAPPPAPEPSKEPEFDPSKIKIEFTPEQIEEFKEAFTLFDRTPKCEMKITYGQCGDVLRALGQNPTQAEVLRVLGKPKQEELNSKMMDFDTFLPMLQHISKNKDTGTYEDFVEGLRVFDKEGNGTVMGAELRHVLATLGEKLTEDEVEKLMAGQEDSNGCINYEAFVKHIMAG
bovine cardiac myosin, sequence (Q3SZE5 whole entry partner): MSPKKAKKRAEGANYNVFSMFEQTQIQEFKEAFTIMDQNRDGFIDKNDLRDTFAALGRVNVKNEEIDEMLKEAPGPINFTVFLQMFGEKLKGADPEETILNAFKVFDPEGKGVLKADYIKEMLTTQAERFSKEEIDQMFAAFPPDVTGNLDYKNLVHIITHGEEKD

| IC50 [nM] | SMILES |
| --- | --- |
| 1000 to 15000 | Cc1cccc([C@H]2CCc3c([nH]c(=O)n(C4(C)CC4)c3=O)N2)c1 [Compound 124] |
| 1000 to 15000 | CC1(n2c(=O)[nH]c3c(c2=O)CC[C@H](c2cccc(F)c2)N3)CC1 [Compound 121] |
| 1000 to 15000 | O=c1[nH]c2c(c(=O)n1C1CC1)CC[C@H](c1ccccc1)N2 [Compound 90] |
| 1000 to 15000 | Cc1cccc(-n2c(=O)[nH]c3c(c2=O)CC[C@H](C2CCC(F)(F)CC2)N3)n1 [Compound 38] |
| 1000 to 15000 | O=c1[nH]c2c(c(=O)n1C1CC1)CC[C@H](C1CCC(F)(F)CC1)N2 [Compound 21] |
| < 1000 | C[C@]1(c2cccc(F)c2)CCc2c([nH]c(=O)n(C3CCOCC3)c2=O)N1 [Compound 128] |
| > 15000 | CC(C)n1c(=O)[nH]c2c(c1=O)CC[C@@H](c1ccc(F)c(F)c1)N2 [Compound 85] |
| 1000 to 15000 | O=c1[nH]c2c(c(=O)n1CC1CC1)CC[C@H](C1CCC(F)(F)CC1)N2 [Compound 19] |
| > 15000 | CC(C)[C@H]1CCc2c([nH]c(=O)n(-c3cc(F)cc(F)c3)c2=O)N1 [Compound 44] |
| > 15000 | CC1(n2c(=O)[nH]c3c(c2=O)CC[C@@H](c2ccccc2F)N3)CC1 [Compound 113] |
| 1000 to 15000 | CC(C)n1c(=O)[nH]c2c(c1=O)CC[C@H](c1cc(F)cc(F)c1)N2 [Compound 77] |
| < 1000 | C[C@]1(c2cc(F)ccc2F)CCc2c([nH]c(=O)n(C3CCC3)c2=O)N1 [Compound 134] |
| 1000 to 15000 | CC(C)Cn1c(=O)[nH]c2c(c1=O)CC[C@H](c1ccc(F)c(F)c1)N2 [Compound 80] |
| > 15000 | Cc1ccccc1[C@@H]1CCc2c([nH]c(=O)n(C(C)C)c2=O)N1 [Compound 105] |
| 1000 to 15000 | CC(C)n1c(=O)[nH]c2c(c1=O)CC[C@H](C1CC(F)(F)C1)N2 [Compound 41] |
| 1000 to 15000 | CC(C)n1c(=O)[nH]c2c(c1=O)CC[C@H](C1CCOCC1)N2 [Compound 27] |
| 1000 to 15000 | Cc1ccccc1[C@H]1CCc2c([nH]c(=O)n(C3(C)CC3)c2=O)N1 [Compound 122] |
| 1000 to 15000 | O=c1[nH]c2c(c(=O)n1C1CCC1)CC[C@H](c1ccccc1)N2 [Compound 28] |
| 1000 to 15000 | CCCn1c(=O)[nH]c2c(c1=O)CC[C@H](c1ccc(F)c(F)c1)N2 [Compound 97] |

| IC50 [nM] | SMILES |
| --- | --- |
| 1000 to 15000 | CCn1c(=O)[nH]c2c(c1=O)CC[C@H](c1cc(F)ccc1F)N2 [Compound 74] |
| 1000 to 15000 | CCn1c(=O)[nH]c2c(c1=O)CC[C@@H](c1ccc(F)c(F)c1)N2 [Compound 94] |
| > 15000 | CC(C)n1c(=O)[nH]c2c(c1=O)CC[C@H](CC1CCOCC1)N2 [Compound 62] |
| 1000 to 15000 | O=c1[nH]c2c(c(=O)n1-c1cccc(F)n1)CC[C@H](c1ccccc1)N2 [Compound 34] |
| < 1000 | Cc1cccc([C@H]2CCc3c([nH]c(=O)n(C(C)C)c3=O)N2)c1 [Compound 102] |
| 1000 to 15000 | CC(C)n1c(=O)[nH]c2c(c1=O)CC[C@H](c1c(F)cccc1F)N2 [Compound 72] |
| < 1000 | O=c1[nH]c2c(c(=O)n1-c1ccccn1)CC[C@H](C1CCC(F)(F)CC1)N2 [Compound 45] |
| 1000 to 15000 | COC(=O)N1CCC(n2c(=O)[nH]c3c(c2=O)CC[C@H](c2ccccc2)N3)CC1 [Compound 110] |
| < 1000 | CC(C)Cn1c(=O)[nH]c2c(c1=O)CC[C@H](C1CCC(F)(F)CC1)N2 [Compound 23] |
| < 1000 | CCCn1c(=O)[nH]c2c(c1=O)CC[C@H](C1CCC(F)(F)CC1)N2 [Compound 30] |
| < 1000 | CC(C)n1c(=O)[nH]c2c(c1=O)CC[C@H](c1cccc(Cl)c1)N2 [Compound 12] |
| < 1000 | O=c1[nH]c2c(c(=O)n1-c1ccc(F)cn1)CC[C@H](C1CCC(F)(F)CC1)N2 [Compound 33] |
| < 1000 | Cn1ccc(-n2c(=O)[nH]c3c(c2=O)CC[C@H](C2CCC(F)(F)CC2)N3)n1 [Compound 36] |
| 1000 to 15000 | CC(C)n1c(=O)[nH]c2c(c1=O)CCC(c1ccccc1)N2 (stereo not shown) [Compound 89] |
| 1000 to 15000 | CC1(n2c(=O)[nH]c3c(c2=O)CC[C@H](c2cc(F)ccc2F)N3)CC1 [Compound 120] |
| < 1000 | O=c1[nH]c2c(c(=O)n1-c1ccccc1)CC[C@H](C1CCC(F)(F)CC1)N2 [Compound 47] |
| 1000 to 15000 | O=c1[nH]c2c(c(=O)n1-c1cc(F)cc(F)c1)CC[C@H](C1CCC(O)CC1)N2 (stereo partly shown) [Compound 52] |
| < 1000 | O=c1[nH]c2c(c(=O)n1-c1cccc(F)n1)CC[C@H](C1CCC(F)(F)CC1)N2 [Compound 43] |
| 1000 to 15000 | O=c1[nH]c2c(c(=O)n1-c1ccccn1)CC[C@H](c1ccccc1)N2 [Compound 35] |

More lines, now with the values behind:

| SMILES | IC50 [nM] |
| --- | --- |
| CCn1c(=O)[nH]c2c(c1=O)CC[C@H](c1ccc(F)c(Cl)c1)N2 [Compound 13] | 1000 to 15000 |
| O=c1[nH]c2c(c(=O)n1-c1cc(F)cc(F)c1)CC[C@H](c1cccc(F)c1)N2 [Compound 60] | 1000 to 15000 |
| CCn1c(=O)[nH]c2c(c1=O)CC[C@H](c1ccc(F)c(F)c1)CN2 [Compound 84] | > 15000 |
| O=c1[nH]c2c(c(=O)n1CC(F)(F)F)CC[C@H](c1ccccc1)N2 [Compound 63] | 1000 to 15000 |
| CCn1c(=O)[nH]c2c(c1=O)CC[C@H](c1ccccc1Cl)N2 [Compound 57] | 1000 to 15000 |
| O=c1[nH]c2c(c(=O)n1CC(F)(F)F)CC[C@@H](c1ccccc1)N2 [Compound 86] | > 15000 |
| CC(C)n1c(=O)[nH]c2c(c1=O)CC(F)(F)[C@H](c1cccc(Cl)c1)N2 [Compound 129] | < 1000 |
| O=c1[nH]c2c(c(=O)n1-c1cc(F)cc(F)c1)C[C@H](c1ccccc1)N2 [Compound 71] | > 15000 |
| O=c1[nH]c2c(c(=O)n1-c1ccccc1)CC[C@H](c1ccccc1F)N2 [Compound 108] | 1000 to 15000 |
| O=c1[nH]c2c(c(=O)n1-c1cc(F)cc(F)c1)CC[C@H](c1ccccc1)N2 [Compound 65] | 1000 to 15000 |
| CCn1c(=O)[nH]c2c(c1=O)CC[C@H](c1cc(F)cc(F)c1)N2 [Compound 25] | > 15000 |
| CCn1c(=O)[nH]c2c(c1=O)CC[C@@](c1ccccc1)(C1CCOCC1)N2 [Compound 142] | < 1000 |
| CCn1c(=O)[nH]c2c(c1=O)CC[C@@](c1ccccc1)(C1CCC1)N2 [Compound 145] | < 1000 |
| CCn1c(=O)[nH]c2c(c1=O)CC[C@](C)(c1cc(F)ccc1F)N2 [Compound 119] | 1000 to 15000 |
| CC(C)n1c(=O)[nH]c2c(c1=O)CCCN2 [Compound 10, 3-Isopropyl-5,6,7,8-tetrahydropyrido[2,3-d]pyrimidine-2,4(1H,3H)-dione] | > 15000 |
| CCn1c(=O)[nH]c2c(c1=O)CC[C@](CC)(c1ccccc1)N2 [Compound 123] | 1000 to 15000 |

| SMILES | IC50 [nM] |
| --- | --- |
| C[C@]1(c2cc(F)ccc2F)CCc2c([nH]c(=O)n(-c3cc(F)cc(F)c3)c2=O)N1 [Compound 135] | < 1000 |
| O=c1[nH]c2c(c(=O)n1CC(F)F)CC[C@H](c1ccc(F)cc1)N2 [Compound 73] | 1000 to 15000 |
| CCn1c(=O)[nH]c2c(c1=O)C[C@](C)(c1ccccc1)N2 [Compound 144] | > 15000 |
| CC(C)n1c(=O)[nH]c2c(c1=O)CC[C@H](Cc1ccccc1)N2 [Compound 66] | < 1000 |
| CCn1c(=O)[nH]c2c(c1=O)CC[C@](c1ccccc1)(C1CCOCC1)N2 [Compound 143] | 1000 to 15000 |
| O=c1[nH]c2c(c(=O)n1-c1cc(F)cc(F)c1)C[C@@H](c1ccccc1)N2 [Compound 79] | > 15000 |
| C[C@]1(c2ccccc2)CCc2c([nH]c(=O)n(-c3ccccc3)c2=O)N1 [Compound 139] | < 1000 |
| CCn1c(=O)[nH]c2c(c1=O)CCC[C@H](c1ccc(F)c(F)c1)N2 [Compound 99] | > 15000 |
| COc1cccc([C@@H]2CCc3c([nH]c(=O)n(C(C)C)c3=O)N2)c1 [Compound 93] | > 15000 |
| O=c1[nH]c2c(c(=O)n1-c1ccccc1)CC[C@H](c1ccccc1)N2 [Compound 26] | 1000 to 15000 |
| O=c1[nH]c2c(c(=O)n1CC(F)F)CC[C@H](c1cccc(F)c1)N2 [Compound 24] | 1000 to 15000 |
| CC(C)n1c(=O)[nH]c2c(c1=O)CC(F)(F)[C@](C)(c1ccccc1)N2 [Compound 140] | 1000 to 15000 |
| CCn1c(=O)[nH]c2c(c1=O)CC[C@H](c1cccc(F)c1)N2 [Compound 61] | 1000 to 15000 |
| C/C=C(\C)n1c(=O)[nH]c2c(c1=O)CC[C@H](c1ccccc1)N2 [Compound 55] | 1000 to 15000 |
| CCn1c(=O)[nH]c2c(c1=O)CC[C@@](c1ccccc1)(C(C)C)N2 [Compound 132] | > 15000 |
| CC(C)n1c(=O)[nH]c2c(c1=O)CC[C@](C)(c1ccc(F)c(F)c1)N2 [Compound 111] | < 1000 |
